Where a SMILES comes first, the peptide text is derived from it. Bridges are numbered along the chain shown (N, C = ends). [ ]: non-standard residue; d: D form. The star is where a group is joined. Bip = N[C@@H](Cc1ccc(-c2ccccc2)cc1)C(=O)O; Gly(octyl) = CCCCCCCC[C@H](N)C(=O)O; Cit = NC(=O)NCCC[C@H](N)C(=O)O; Ahp(2) = CCCCC[C@H](N)C(=O)O; Carboxymethyl = O=C(O)C*; Orn = NCCC[C@H](N)C(=O)O; Dab = NCC[C@H](N)C(=O)O; Dap = NC[C@H](N)C(=O)O
target: T1, human PD-1 / PD-L1-Ig binding on Jurkat cell line over-expressing human PD-1 (Jurkat-PD-1) (Homo sapiens, UniProt Q15116); experiment: Jurkat-PD-1 Cell Binding High-Content Screening Assay (CBA); assay type: cell-based; conditions: Jurkat-PD-1 cells, PE-labeled PD-L1-Ig 20 nM final; read-out: Jurkat HPD1_PDL1 IC50
T1 construct: expressed in transfected cells; host or cells: Jurkat
T1 sequence (Q15116 25-288): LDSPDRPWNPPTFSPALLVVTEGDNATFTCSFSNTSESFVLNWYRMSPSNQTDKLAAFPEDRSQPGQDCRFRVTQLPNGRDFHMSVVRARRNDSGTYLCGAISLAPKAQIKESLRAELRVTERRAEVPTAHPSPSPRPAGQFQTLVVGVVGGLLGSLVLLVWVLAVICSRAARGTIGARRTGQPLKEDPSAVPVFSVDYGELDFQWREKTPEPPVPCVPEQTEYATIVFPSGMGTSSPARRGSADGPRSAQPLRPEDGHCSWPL
How it was run: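 Jurkat cells over-expressing human PD-1, in DMEM/10% FCS, pre-incubated with compound 2 h at 37° C. PE-labeled human PD-L1-Ig (20 nM final) added for 1 h; cells fixed in paraformaldehyde with Hoechst 33342 nuclear stain, washed, and bound fluorescence quantified by high-content imaging.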

SMILES	IC50
CCCCC[C@@H]1NC(=O)[C@H](CCN)NC(=O)[C@@H](CC(C)C)NC(=O)[C@H](CCCN)NC(=O)[C@H](CCCNC(N)=O)NC(=O)[C@H](Cc2ccc(-c3ccccc3)cc2)NC(=O)[C@H](C(C)C)NC(=O)[C@H](Cc2c[nH]c3ccccc23)NC(=O)[C@H](CC(=O)O)NC(=O)[C@H](Cc2ccc(OCC(=O)O)cc2)NC(=O)[C@H](CN)NC(=O)CSC[C@@H](C(=O)N[C@@H](C)C(N)=O)NC(=O)[C@H]([C@@H](C)O)NC(=O)[C@H](C(C)C)NC1=O [Compound 1347] ({CH2CO}-[Dap]Y(Carboxymethyl)DWV[Bip][Cit][Orn][dL][Dab][Ahp(2)]VTCA-NH2; thioether N-14)	26.4 nM
CC(C)C[C@H]1NC(=O)[C@H](CCCN)NC(=O)[C@H](CCCNC(N)=O)NC(=O)[C@H](Cc2ccc(-c3ccccc3)cc2)NC(=O)[C@H](C(C)C)NC(=O)[C@H](Cc2c[nH]c3ccccc23)NC(=O)[C@H](CC(=O)O)NC(=O)[C@H](Cc2ccc(OCC(=O)O)cc2)NC(=O)[C@H](CN)NC(=O)CSC[C@@H](C(=O)N[C@@H](C)C(N)=O)NC(=O)[C@H]([C@@H](C)O)NC(=O)[C@H](C(C)C)NC(=O)[C@H](CCC2CCCCC2)NC(=O)[C@H](CCN)NC1=O [Compound 1348]	40 nM
CC(C)C[C@H]1NC(=O)[C@H](CCCN)NC(=O)[C@H](CCCNC(N)=O)NC(=O)[C@H](Cc2ccc(-c3ccccc3)cc2)NC(=O)[C@H](C(C)C)NC(=O)[C@H](Cc2c[nH]c3ccccc23)NC(=O)[C@H](CC(=O)O)NC(=O)[C@H](Cc2ccc(OCC(=O)O)cc2)NC(=O)[C@H](CN)NC(=O)CSC[C@@H](C(=O)N[C@@H](C)C(N)=O)NC(=O)[C@H]([C@@H](C)O)NC(=O)[C@H](C(C)C)NC(=O)[C@H](Cc2ccccn2)NC(=O)[C@H](CCN)NC1=O [Compound 1349]	54.9 nM
CC(C)C[C@H]1NC(=O)[C@H](CCCN)NC(=O)[C@H](CCCNC(N)=O)NC(=O)[C@H](Cc2ccc(-c3ccccc3)cc2)NC(=O)[C@H](C(C)C)NC(=O)[C@H](Cc2c[nH]c3ccccc23)NC(=O)[C@H](CC(=O)O)NC(=O)[C@H](Cc2ccc(OCC(=O)O)cc2)NC(=O)[C@H](CN)NC(=O)CSC[C@@H](C(=O)N[C@@H](C)C(N)=O)NC(=O)[C@H]([C@@H](C)O)NC(=O)[C@H](C(C)C)NC(=O)[C@H](Cc2cccnc2)NC(=O)[C@H](CCN)NC1=O [Compound 1350]	162 nM
COc1ccc(C[C@@H]2NC(=O)[C@H](CCN)NC(=O)[C@@H](CC(C)C)NC(=O)[C@H](CCCN)NC(=O)[C@H](CCCNC(N)=O)NC(=O)[C@H](Cc3ccc(-c4ccccc4)cc3)NC(=O)[C@H](C(C)C)NC(=O)[C@H](Cc3c[nH]c4ccccc34)NC(=O)[C@H](CC(=O)O)NC(=O)[C@H](Cc3ccc(OCC(=O)O)cc3)NC(=O)[C@H](CN)NC(=O)CSC[C@@H](C(=O)N[C@@H](C)C(N)=O)NC(=O)[C@H]([C@@H](C)O)NC(=O)[C@H](C(C)C)NC2=O)cc1 [Compound 1351] ({CH2CO}-[Dap]Y(Carboxymethyl)DWV[Bip][Cit][Orn][dL][Dab]Y(Me)VTCA-NH2; thioether N-14)	121 nM
CCCCCCCC[C@@H]1NC(=O)[C@H](CCN)NC(=O)[C@@H](CC(C)C)NC(=O)[C@H](CCCN)NC(=O)[C@H](CCCNC(N)=O)NC(=O)[C@H](Cc2ccc(-c3ccccc3)cc2)NC(=O)[C@H](C(C)C)NC(=O)[C@H](Cc2c[nH]c3ccccc23)NC(=O)[C@H](CC(=O)O)NC(=O)[C@H](Cc2ccc(OCC(=O)O)cc2)NC(=O)[C@H](CN)NC(=O)CSC[C@@H](C(=O)N[C@@H](C)C(N)=O)NC(=O)[C@H]([C@@H](C)O)NC(=O)[C@H](C(C)C)NC1=O [Compound 1352] ({CH2CO}-[Dap]Y(Carboxymethyl)DWV[Bip][Cit][Orn][dL][Dab][Gly(octyl)]VTCA-NH2; thioether N-14)	110 nM
